Source: US20220323389A1, “TREATING NON-ALCOHOLIC FATTY LIVER DISEASE AND INFLAMMATORY STEATOHEPATITIS WITH SLC25A1 INHIBITORS” (GEORGETOWN UNIVERSITY, priority 2019, published 2022)

How the values were obtained:
HFD-fed mice = test: Inflammation and fibrosis in HFD-fed mice (serum interleukins, macrophage IHC, RT-PCR, Picro-Sirius Red); assay type: in vivo, mouse
From the text: (§1) Cells, reagents, antibodies, primers. CTPI-2 was purchased from Enamine Ltd. (Monmouth Jct, N.J.). The anti-SLC25A1 antibody used in immunoblots was either from Santa Cruz Biotech (Dallas, Tex.), (#sc-86392), employed at 1:1000 dilution, or from Proteintech (15235-1-AP, Rosemont, Ill.), employed at 1:1000 dilution. Mice and diets. For the majority of the experiments (except for experiments harboring genetic alterations of the Slc25a1 gene), DIO C57BL/6J mice were purchased from Jackson Laboratory (Bar Harbor, Me.) between 4-6 weeks of age. Mice were acclimated in the Georgetown University animal facility for at least one week. At the indicated times, mice were randomized to a standard laboratory chow diet (Labdiet #5053, St. Louis, Mo.) or the high fat diet (Researchdiets D12492, New Brunswick, N.J.), with 60% calories derived from fat (lard), and 20% from sucrose. During the course of the experiments, mice were housed at one mouse per cage and food consumption was measured regularly. Animals were maintained in a normal light-cycle and provided with water ad libitum. CTPI-2 treatment. CTPI-2 was administered at 50 mg/kg via intra-peritoneal injection on alternate days. CTPI-2 was diluted either in DMSO (at 0.2% final concentration) using DMSO as vehicle control, or in 0.47% Sodium Bicarbonate (NaCO3) at a final concentration of 14 mM. NaCO3 (0.47%) served as vehicle control. Immunoblot of murine tissues. Frozen tissue samples were homogenized in radioimmunoprecipitation (RIPA) buffer with protease inhibitor cocktails. Protein quantification was done by using a Coomassie (Bradford) Protein Assay Kit (Pierce, Waltham Mass.). Equal amount of protein lysate was loaded and separated by Novex™ 4-20% Tris-Glycine Mini Gel (Invitrogen, Carlsbad, Calif.), then transferred to a PVDF membrane. Appropriate horseradish peroxidase-conjugated secondary antibody (Invitrogen) was applied after incubation with primary antibody. SuperSignal™ West Pico PLUS Chemiluminescent Substrate (Thermo Fisher Scientific, Waltham, Mass.) was used for protein detection. SLC25a1 strains. The original Slc25a1 tm1a strain was purchased from the Mutant Mouse Resource and Research Center (MMRRC, Chapel Hill, N.C.) (C57BL/6N-Slc25a1^tm1a(EUCOMM)Wtsi, RRID: MMRRC_042258-UCD). The Tg(Alb-cre)21M (Alb-Cre) mice were purchased from Jackson Laboratory (#003574). Slc25a1^+/−, Slc25a1^fl/fl and Alb/Cre mice were genotyped by conventional PCR with genomic DNA extracted from the mouse tail biopsies. Agarose gel electrophoresis was used for analysis of PCR product analysis. The PCR conditions used were as follows: 95° C. for 4 minutes, followed by 40 cycles (95° C. for 30 seconds, 65° C. for 30 seconds, and 72° C. for 50 seconds), 72° C. for 2 min then kept in 4° C. before used. Histological Analysis. Assessment of steatosis was performed on paraffin embedded H&E stained sections derived from 3-6 animals and on multiple images for each animal. The steatosis grade was scored according to the degree of liver involvement with 0, <5%; 1, 5% to 33%; 2, 33% to 50%; and 3, >50%. Alternatively, the percentage of steatosis per area was calculated with ImageJ program. Lypidomic analysis. Targeted quantitation of triglycerides was performed using multiple reaction monitoring mass spectrometry. The samples were resolved on an CORTECS T3 2.7 μm, 2.1×30 mm column online with a triple quadrupole mass spectrometer (Xevo-TQ-S, Waters Corporation, Milford, Mass.) operating in the multiple reaction monitoring (MRM) mode. Signal intensities from all MRM Q1/Q3 ion pairs for triglycerides were ranked to ensure selection of the most intense precursor and fragment ion pair for MRM-based quantitation. […] The LC and MRM method used here for the study was developed by Waters Corporation. The metabolite ratios were calculated by normalizing the peak area of endogenous metabolites within tissue samples normalized to the internal standard. Processed data was normalized with respect to tissue weight taken for analysis. […]

[1] = tested on: liver gene expression program induced by the HFD; test: RNAseq, RT-qPCR and immunoblot of liver (and WAT) of HFD-fed mice; assay type: in vivo, mouse
From the text: as §1

liver of HFD-fed mice = test: Liver metabolites and lipid profile (LC-MS, Lipidyzer) in HFD-fed mice; assay type: in vivo, mouse
From the text: as §1

HepG2 cells = test: mRNA levels (RT-qPCR) in tissue culture cells treated with CTPI-2 with or without citrate; assay type: cell-based
Procedure: FIGS. 6 A-B show citrate and Ac-CoA levels derived from liver extracts of HFD-vehicle (light) or HFD+CTPI-2 (dark). FIGS. 6C-D show levels of the indicated triacylglycerides (TAG, (FIG. 6C)) and total fatty acids (FA, panel D) detected with the Lipidyzer platform. N=2-3 mice per group. FIG. 6E-F show levels of the indicated metabolites detected with targeted LC-MS analysis. […] The indicated mRNA levels were analyzed with RT-qPCR. H. Model summarizing findings as explained in the Examples. Bars indicate Standard Deviations. *p≤0.05, **p≤0.01, ***p≤0.001.
To corroborate the direct effect of CTPI-2 and of citrate in the regulation of the genes identified by our analysis, the effects of the drug and of citrate supplementation in tissue culture cells were explored.

SLC25A1 = SLC25A1 (Homo sapiens, UniProt P53007); conditions: previous studies performed in vitro (Fernandez et al.); cited from earlier work
Sequence of SLC25A1 (P53007 14-311, species assumed): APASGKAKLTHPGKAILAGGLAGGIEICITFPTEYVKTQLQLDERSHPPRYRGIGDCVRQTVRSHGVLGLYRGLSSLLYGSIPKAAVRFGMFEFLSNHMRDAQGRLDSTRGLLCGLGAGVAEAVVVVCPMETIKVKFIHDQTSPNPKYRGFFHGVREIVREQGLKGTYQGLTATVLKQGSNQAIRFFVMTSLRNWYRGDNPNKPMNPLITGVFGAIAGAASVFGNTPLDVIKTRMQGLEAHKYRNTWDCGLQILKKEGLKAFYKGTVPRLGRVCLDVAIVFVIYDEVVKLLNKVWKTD

[2] = liver, 4 weeks of CTPI-2 treatment
[3] = liver, normalized to HFD-vehicle

O=C(O)c1ccccc1NS(=O)(=O)c1ccc(Cl)c([N+](=O)[O-])c1 [CTPI-2]
liver Kupffer cell macrophage population (F4/80) and perivascular macrophage infiltration (HFD-fed mice; HFD-fed mice, IHC): reversed | M2 markers (MRC1, FN-1, Arg1) mRNA (HFD-fed mice; liver of HFD-fed mice, RT-PCR): either not affecting or increasing | expression of anti-fibrotic cadherin 1 (HFD-fed mice; liver of HFD-fed mice, RT-PCR): increase | expression of pro-fibrotic genes (collagen 1 and 4, keratin 19, PDGFR) (HFD-fed mice; liver of HFD-fed mice, RT-PCR): reduction | pro-inflammatory markers of the M1 phenotype (mRNA) (HFD-fed mice; liver of HFD-fed mice, RT-PCR): repressed | bile acid biosynthetic pathway (RNAseq) ([1]; liver): inhibits bile acid biosynthetic pathway | protein levels matching the gene expression pattern (immunoblot) ([1]; liver and adipose tissue): concordantly paralleled by changes in the protein levels | cluster of genes involved in NAFLD (RNAseq) [1, 2]: down-regulated | gene expression program induced by the HFD (RNAseq) [1, 2]: essentially reverted the gene expression program induced by the HFD | levels of PPARγ ([1]; liver, RT-qPCR): unchanged | PPARγ and downstream target genes CEBPα1, CEBPα2 and GLUT4 (RT-qPCR) [1, 3]: down-regulated | master lipogenetic genes SREBP1, FASN and ACACA (RT-qPCR) [1, 3]: suppression | genes/pathways of carbon and pyruvate metabolism, glycolysis and gluconeogenic genes (RNAseq) ([1]; liver, Fbp1, PC, PCK1/2, G6PC, G6PC3, AldoA/B, PFKL/P, PGK1, PKLR): repressed | Ac-CoA concentration in the liver (liver of HFD-fed mice; HFD+CTPI-2 vs HFD-vehicle): significantly lower | citrate concentration in the liver (liver of HFD-fed mice; HFD+CTPI-2 vs HFD-vehicle): significantly lower | liver diglycerides levels (liver of HFD-fed mice; LC-MS): reduced the levels | liver linoleic acid levels (liver of HFD-fed mice; LC-MS): reduced the levels | liver monoglycerides levels (liver of HFD-fed mice; LC-MS): reduced the levels | liver palmitic acid levels (liver of HFD-fed mice; LC-MS): reduced the levels | liver phosphatidylglycerol levels (liver of HFD-fed mice; LC-MS): reduced the levels | liver concentration of long chain triglycerides (liver of HFD-fed mice; Lipidyzer platform): significantly diminished | total level of free fatty acids in the liver (liver of HFD-fed mice; Lipidyzer platform, particularly chain 16 to 25): significantly diminished | liver concentration of lactate (liver of HFD-fed mice; targeted LC-MS): decreased | liver concentration of pyruvate (liver of HFD-fed mice; targeted LC-MS): decreased | effect of citrate supplementation on CTPI-2 gene inhibition (FASN, ACACA, AldoA, Aldo/B) (HepG2 cells; 5 mM sodium citrate): completely rescued by citrate | expression of FA synthesis genes FASN and ACACA (HepG2 cells; CTPI-2 5-12 hours): inhibited | expression of glycolytic/gluconeogenesis genes AldoA and Aldo/B (HepG2 cells; CTPI-2 5-12 hours): inhibited | SLC25A1 expression levels in vitro (SLC25A1): did not affect the expression levels of this protein | mitochondrial citrate transport activity (SLC25A1): interfered with the mitochondrial citrate transport activity
